From patent US20100035904A1, “PHE[…]; METHODS OF MAKING; AND METHODS OF USE THEREOF” (priority 2008, published 2010)
Structures can show the parent of a compound that is named as a salt.

Legend:
[1] = Analysis of residual solids from water slurry (XRPD, 1H-NMR) for form conversion; format: physicochemical; conditions: water slurry overnight, ambient temperature
[2] = background statement; cited from earlier work
[3] = Moisture sorption experiments; format: physicochemical; conditions: for hygroscopicity (moisture sorption analysis): 0-90% RH; for XRPD pattern of material following the moisture sorption experiment: after sorption/desorption and drying
Method: Moisture sorption experiments are carried out on about 10 milligrams (mg) of sample in a Pyrex bulb by first equilibrating the sample at 25° C./40% relative humidity (RH) until an equilibrium weight is reached. The sample is then subjected to an isothermal (25° C.) adsorption scan from 40 to 90% RH in steps of 10% RH. The sample is allowed to equilibrate to either an asymptotic weight or a maximum of four hours for each relative humidity. A desorption scan from 90 to 0% RH (at 25° C.) is then run in steps of −10% again allowing a maximum of four hours for equilibration or an asymptotic weight. Following desorption, an adsorption scan is performed from 0% RH to the initial 40% RH. The sample is then dried for one hour at 80° C. to obtain the dry weight.

[4] = Stability of the salt in seven day toluene slurry (XRPD); format: physicochemical; conditions: ambient temperature, seven days
Method: Stability of the salt is evaluated using a seven day toluene slurry. Each salt (about 10-20 mg) is slurried in 250 microliters of toluene at ambient temperature for seven days in a 4 ml vial. After seven days, each sample is filtered and dried overnight at ambient temperature under vacuum. The samples are then analyzed by XRPD.

| Compound | stability of the salt in water slurry (conclusion) [1] | hygroscopicity / stability in humid environments [2] | hygroscopicity (moisture sorption analysis) ([3]; 25° C.) | water adsorbed between 10-60% RH ([3]; 25° C., 10-60% RH) | water adsorbed at 90% RH ([3]; 25° C.) | XRPD pattern of material following the moisture sorption experiment [3] | water content at which the desorption curve stabilizes ([3]; desorption, 40-5% RH) | XRPD of material following seven day toluene slurry [4] |
| --- | --- | --- | --- | --- | --- | --- | --- | --- |
| CCC1(c2ccccc2)C(=O)NC(=O)NC1=O [phenobarbital potassium salt, phenobarbital potassium] | potential dissociation | – | – | – | – | – | – | – |
| CCC1(c2ccccc2)C(=O)NC(=O)NC1=O [Phenobarbital sodium] | – | hygroscopic and degrades when exposed to humid environments | – | – | – | – | – | – |
| CCC1(c2ccccc2)C(=O)NC(=O)NC1=O [phenobarbital sodium salt, phenobarbital sodium] | – | – | hygroscopic | approximately 2 wt % | approximately 34 wt % | shows differences in comparison to the diffraction pattern of the initial material | approximately 12 wt % | amorphous |
| phenobarbital betaine [phenobarbital betaine salt] | salt dissociation | – | hygroscopic | – | 28.1 wt % | consistent with the initial material | – | consistent with the initial material |
| CCC1(c2ccccc2)C(=O)NC(=O)NC1=O [Phenobarbital free form, 5-ethyl-5-phenyl-2,4,6(1H,3H,5H)-pyrimidinetrione, reference compound] | – | – | nonhygroscopic | – | 0.1 wt % | consistent with the initial phenobarbital starting material | – | – |
| CCC1(c2ccccc2)C(=O)[N-]C(=O)NC1=O.C[N+](C)(C)CCO [phenobarbital choline salt, phenobarbital choline] | remained stable | – | hygroscopic | – | 23 wt % | consistent with the initial material | – | consistent with the initial material |
| phenobarbital benzathine | remained stable | – | nonhygroscopic | – | 1.0 wt % | consistent with the initial material | – | – |
